From patent US6166065A, “2,3-dioxabicyclo[3.3.1]nonane derivatives and antimalarial pharmaceutical compositions comprising them” (Yeda Research and Development Co., Ltd., priority 1997, dated 2000)
Like-named read-outs stand apart in the source and are kept apart here. One block for each compound: values may come before it.

Columns and labels:
[1] = tested on: Plasmodium falciparum (NF54); assay: In vitro antimalarial activity, [3H]hypoxanthine incorporation into chloroquine-sensitive P. falciparum (NF 54); format: cell-based
Description: the protozoan Plasmodium falciparum is a causative agent of malaria. The antimalarial activity of 2,3-dioxabicyclo[3.3.1]nonanes of type A was determined by measuring the incorporation of [^3 H]hypoxanthine, by the methods of Desjardins^9 and Milhous,^10 into […] Plasmodium falciparum (NF54)^11 in the presence of varying drug concentrations. Dose-response response curves that were fit to the experimental data by means of the Marquardt algorithm^12 were solved for the drug concentration that kills 50% of parasites (IC50), and were analyzed for accuracy of fit (R^2 value, typically ≥0.99). Provisional IC50 values were obtained in a survey of seven 5-fold dilutions (in triplicate) of stock solutions of chromatographically-purified or recrystalized test compound. Assay were later expanded to include ten concentrations (in quadruplicate) of ~1.8-fold dilutions, which flank the provisional IC50.
Tables 1-3 present tabulations of a number of compounds that have been synthesized along with the IC50 (in nM).

[2] = tested on: Plasmodium berghei (N strain); assay: In vivo antimalarial activity against chloroquine-sensitive Plasmodium berghei (N strain), four-day test in mice; details: sc, P. berghei (N strain), subcutaneous, daily dose, fourday test
Description: (§1) Based on the in vitro antimalarial activity of compounds of type A, the in vivo antimalarial activity of two representatives, namely of compounds 23a and 34a, were tested.
(§2) *ED50 and ED90 are given as the daily dose in mg/Kg, repeated
(§3) every 4 days. Substances were administered to mice subcutaneously and
(§4) tested by the fourday test.^14,15

[3] = tested on: Plasmodium yoelii (ssp. NS); assay: In vivo antimalarial activity against chloroquine-resistant Plasmodium yoelii (ssp. NS), four-day test in mice; details: sc, P. yoelii (ssp. NS), subcutaneous, daily dose, fourday test
Description: as §1, §2, §3, §4

[4] = cited from earlier work
[5] = tested on: Plasmodium berghei (N strain); design: ED90: unit not given beside the values; ED50: unit not given here; details: against P. berghei; cited from earlier work
[6] = rats, high doses; cited from earlier work
[7] = tested on: Plasmodium yoelii (ssp. NS); design: ED90: unit not given beside the values; ED50: unit not given here; details: against P. yoelii; cited from earlier work
[8] = tested on: Plasmodium falciparum (NF54); details: recorded under the same conditions; cited from earlier work
[9] = tested on: mouse neuroblastoma cells; details: cited from earlier work
[10] = Plasmodium falciparum, NF54, Survey data (provisional; seven 5-fold dilutions in triplicate)
[11] = Plasmodium falciparum, NF54, Expansion data (ten concentrations, quadruplicate, ~1.8-fold dilutions)

Structure (SMILES): C[C@]1(CSc2ccccc2)OOC2C[C@@H]1C[C@H](OC(=O)c1ccccc1)[C@]2(C)O (stereo in doubt) [Compound 4a, (1R,4S,5S,7S,8S)-7-benzoyloxy-4,8-dimethyl-4-phenylthiomethyl-2,3-dioxabicyclo[3.3.1]nonan-8-ol]
IC50 [1, 10]: 110 nM

IC50 [1, 11]: 55 nM
Structure (SMILES): C[C@@]1(O)CC[C@@H]2C[C@H]1OO[C@@]2(C)CS(=O)(=O)c1ccccc1 [Compound 21a, (1R,4R,5R,8R)-4,8-dimethyl-4-phenylsulfonylmethyl-2,3-dioxabicyclo [3.3.1]nonan-8-ol]

IC50 [1, 11]: 89 nM
Structure (SMILES): C[C@]1(CS(=O)(=O)c2ccccc2)OO[C@@H]2C[C@H]1CC[C@@]2(C)O [Compound 21b, (1R,4S,5R,8R)-4,8-dimethyl-4-phenylsulfonylmethyl-2,3-dioxabicyclo[3.3.1]nonan-8-ol]

IC50 [1, 11]: 17 nM
Structure (SMILES): C[C@H]1CC[C@@H]2C[C@H]1OO[C@@]2(C)CS(=O)(=O)c1ccccc1 [Compound 22a, (1R,4R,5R,8S)-4,8-dimethyl-4-phenylsulfonylmethyl-2,3-dioxabicyclo [3.3.1]nonane]

IC50 [1, 11]: 24 nM
Structure (SMILES): C[C@H]1CC[C@@H]2C[C@H]1OO[C@]2(C)CS(=O)(=O)c1ccccc1 [Compound 22b, (1R,4S,5R,8S)-4,8-dimethyl-4-phenylsulfonylmethyl-2,3-dioxabicyclo[3.3.1]nonane]

Structure (SMILES): CC(=O)O[C@]1(C)CC[C@@H]2C[C@H]1OO[C@@]2(C)CS(=O)(=O)c1ccccc1 [Compound 23a, (1R,4R,5R,8R)-8-acetoxy-4,8-dimethyl-4-phenylsulfonylmethyl-2,3-dioxabicyclo [3.3.1]nonane]
IC50 [1, 11]: 17 nM | ED50 [2]: 3.7 mg/kg | ED90 [2]: 7.3 mg/kg/day | ED50 [3]: 12.5 mg/kg | ED90 [3]: 28 mg/kg/day

Structure (SMILES): CC(=O)O[C@]1(C)CC[C@@H]2C[C@H]1OO[C@]2(C)CS(=O)(=O)c1ccccc1 [Compound 23b, (1R,4S,5R,8R)-8-acetoxy-4,8-dimethyl-4-phenylsulfonylmethyl-2,3-dioxabicyclo[3.3.1]nonane]
IC50 [1, 11]: 17 nM

Structure (SMILES): CC(=O)CC(=O)O[C@]1(C)CC[C@@H]2C[C@H]1OO[C@@]2(C)CS(=O)(=O)c1ccccc1 [Compound 24a, (1R,4R,5R,8R)-8-acetylacetoxy-4,8-dimethyl-4-phenylsulfonylmethyl-2,3-dioxabicyclo[3.3.1]nonane]
IC50 [1, 11]: 46 nM

Structure (SMILES): CC(=O)CC(=O)O[C@]1(C)CC[C@@H]2C[C@H]1OO[C@]2(C)CS(=O)(=O)c1ccccc1 [Compound 24b, (1R,4S,5R,8R)-8-acetylacetoxy-4,8-dimethyl-4-phenylsulfonylmethyl-2,3-dioxabicyclo [3.3.1]nonane]
IC50 [1, 11]: 73 nM

IC50 [1, 11]: 170 nM
Structure (SMILES): CCOC(=O)C(=O)O[C@]1(C)CC[C@@H]2C[C@H]1OO[C@@]2(C)CS(=O)(=O)c1ccccc1 [Compound 25a, (1R,4R,5R,8R)-8-ethoxyoxyalyloxy-4,8-dimethyl-4-phenylsulfonylmethyl-2,3-dioxabicyclo [3.3.1]nonane]

IC50 [1, 11]: 140 nM
Structure (SMILES): CCOC(=O)C(=O)O[C@]1(C)CC[C@@H]2C[C@H]1OO[C@]2(C)CS(=O)(=O)c1ccccc1 [Compound 25b, (1R,4S,5R,8R)-8-ethoxyoxalyloxy-4,8-dimethyl-4-phenylsulfonylmethyl-2,3-dioxabicyclo [3.3.1]nonane]

IC50 [1, 11]: 21 nM
Structure (SMILES): C[C@@]1(OC(=O)C(=O)N(Cc2ccccc2)Cc2ccccc2)CC[C@@H]2C[C@H]1OO[C@@]2(C)CS(=O)(=O)c1ccccc1 [Compound 26a, (1R,4R,5R,8R)-8-dibenzylaminooxalyloxy-4,8-dimethyl-4-phenylsulfonylmethyl-2,3-dioxabicyclo[3.3.1]nonane]

IC50 [1, 11]: 81 nM
Structure (SMILES): C[C@]1(CS(=O)(=O)c2ccccc2)OO[C@@H]2C[C@H]1CC[C@@]2(C)OC(=O)C(=O)N(Cc1ccccc1)Cc1ccccc1 [Compound 26b, (1R,4S,5R,8R)-dibenzylaminooxalyloxy-4,8-dimethyl-4-phenylsulfonylmethyl-2,3-dioxabicyclo[3.3.1]nonane]

IC50 [1, 11]: 47 nM
Structure (SMILES): C[C@@]1(OC(=O)Oc2ccccc2)CC[C@@H]2C[C@H]1OO[C@@]2(C)CS(=O)(=O)c1ccccc1 [Compound 27a, (1R,4R,5R,8R)-4,8-dimethyl-8-phenoxycarbonyloxy-4-phenylsulfonylmethyl-2,3-dioxabicyclo[3.3.1]nonane]

IC50 [1, 11]: 150 nM
Structure (SMILES): C[C@]1(CS(=O)(=O)c2ccccc2)OO[C@@H]2C[C@H]1CC[C@@]2(C)OC(=O)Oc1ccccc1 [Compound 27b, (1R,4S, 5R,8R)-4,8-dimethyl-8-phenoxycarbonyloxy-4-phenylsulfonylmethyl-2,3-dioxabicyclo[3.3.1]nonane]

IC50 [1, 10]: 250 nM
Structure (SMILES): C[C@@]1(O)[C@@H]2C[C@H](C[C@@H]1OC(=O)c1ccccc1)[C@@](C)(CS(=O)(=O)c1ccccc1)OO2 [Compound 29a, (1S,4S,5S,7S,8S)-7-benzoyloxy-4,8-dimethyl-4-phenylsulfonylmethyl-2,3-dioxabicyclo[3.3.1]nonan-8-ol]

IC50 [1, 10]: 300 nM
Structure (SMILES): CCCCS(=O)(=O)C[C@@]1(C)OO[C@H]2C[C@@H]1C[C@H](OC(=O)c1ccccc1)[C@]2(C)O [Compound 30a, (1S,4S,5S,7S,8S)-7-benzoyloxy-4-n-butylsulfonylmethyl-4,8-dimethyl-2,3-dioxabicyclo[3.3.1]nonan-8-ol]

IC50 [1, 11]: 14 nM
Structure (SMILES): COc1ccc(CO[C@]2(C)CC[C@@H]3C[C@H]2OO[C@@]3(C)CS(=O)(=O)c2ccccc2)cc1 [Compound 34a, (1R,4R,5R,8R)-4,8-dimethyl-8-(p-methoxybenzyloxy)-4-phenylsulfonylmethyl-2,3-dioxabicyclo[3.3.1]nonane]
ED50 [2]: 1.3 mg/kg | ED90 [2]: 2.3 mg/kg/day | ED50 [3]: 4.8 mg/kg | ED90 [3]: 8.3 mg/kg/day

IC50 [1, 11]: 35 nM
Structure (SMILES): CC(C)=CCO[C@]1(C)CC[C@@H]2C[C@H]1OO[C@@]2(C)CS(=O)(=O)c1ccccc1 [Compound 35a, (1R,4R,5R,8R)-4,8-dimethyl-8-(γ,γ-dimethylallyloxy)-4-phenylsulfonylmethyl-2,3dioxabicyclo[3.3.1]nonane]

IC50 [1, 11]: 32 nM
Structure (SMILES): C[C@@]1(OC/C=C/c2ccccc2)CC[C@@H]2C[C@H]1OO[C@@]2(C)CS(=O)(=O)c1ccccc1 [Compound 36a, (1R,4R,5R,8R)-8-(trans-cinnamyloxy)-4,8-dimethyl-4-phenylsulfonylmethyl-2,3-dioxabicyclo[3.3.1]nonane]

IC50 [1, 10]: 490 nM
Structure (SMILES): CC1=CC[C@@H]2C[C@H]1OO[C@@]2(C)CS(=O)(=O)c1ccccc1 [Compound 37a, (1R,4R,5R)-4,8-dimethyl-4-phenylsulfonylmethyl-2,3-dioxabicyclo[3.3.1]non-7-ene]

IC50 [1, 11]: 92 nM
Structure (SMILES): C[C@@]12O[C@@H]1C[C@@H]1C[C@H]2OO[C@@]1(C)CS(=O)(=O)c1ccccc1 [Compound 39a, (1R,4R,5R,7R,8R)-7,8-epoxy-4,8-dimethyl-4-phenylsulfonylmethyl-2,3-dioxabicyclo[3.3.1]nonane]

Structure (SMILES): CC(=O)O[C@]1(C)CC[C@@H]2C[C@H]1OO[C@@]2(C)C[S+]([O-])c1ccccc1 (stereo partly drawn) [Compound 41a, (1R,4R,5R,8R)-8-acetoxy-4,8-dimethyl-4-phenylsulfinylmethyl-2,3-dioxabicyclo[3.3.1]nonanes]
IC50 ([1]; Expansion data (ten concentrations, quadruplicate, ~1.8-fold dilutions)): 40 nM | IC50 ([1]; Expansion data (ten concentrations, quadruplicate, ~1.8-fold dilutions), listed as 41a'): 14 nM

Structure (SMILES): CC(=O)O[C@]1(C)CC[C@@H]2C[C@H]1OO[C@]2(C)C[S+]([O-])c1ccccc1 (stereo partly drawn) [Compound 41b, (1R,4S,5R,8R)-8-acetoxy-4,8-dimethyl-4-phenylsulfinylmethyl-2,3-dioxabicyclo[3.3.1]nonanes]
IC50 [1, 11]: 71 nM

Structure (SMILES): C[C@@H]1C(=O)C[C@H]2C[C@@H]1OO[C@@]2(C)/C=C\c1ccc(C(F)(F)F)cc1C(F)(F)F [arteflene]
in vitro and in vivo antimalarial screening, clinical trials [4]: gave encouraging results | ED50 [5]: 2.7 | ED90 [5]: 3.9

Structure (SMILES): CO[C@H]1O[C@@H]2O[C@@]3(C)CC[C@H]4[C@H](C)CC[C@@H]([C@H]1C)[C@@]24OO3 [artemether]
neurotoxicity [6]: neurotoxicity has been seen

Structure (SMILES): C[C@@H]1CC[C@H]2[C@@H](C)C(=O)O[C@@H]3O[C@@]4(C)CC[C@@H]1[C@]32OO4 [artemisinin]
ED50 [7]: 5.8 | ED90 [7]: 10.0 | ED50 [5]: 0.95 | ED90 [5]: 2.5 | IC50 [8]: 11 nM

Structure (SMILES): C[C@@H]1CC[C@H]2[C@@H](C)C(O)O[C@@H]3O[C@@]4(C)CC[C@@H]1[C@]32OO4 (stereo partly shown) [dihydroarte-mesinin]
neurotoxicity [9]: neurotoxicity has been seen
